According to patent US12509438B2, “Pyrazole derivative” (Aptabio Therapeutics Inc., priority 2020, dated 2025):

What was measured:
[1] = system: differentiated HL-60 cells; test: ROS production induced by PMA in HL-60 cells differentiated into neutrophil cells (L-012 luminescence); assay type: cell-based, human; conditions: for inhibition at 0.5 µM: Homo sapiens, HL-60, synthetic example compounds 0.5 uM, read-out: ROS production inhibitory effect
Description: (§1) In order to confirm an effect of the synthetic example compounds on ROS production from fibroblasts and specific substrate cells, ROS production was induced by stimulation of PMA (phorbol 12-myristate 13-acetate), TGF-β1, palmitate or high concentration-glucose, or the like for HL-60 cells (Korean Cell Line Bank), NHLF(normal human lung fibroblast, Lonza), LX-2 (human hepatic stellate cells, Sigma), ARPE19 (human retinal pigment epithelial cell, ATCC), KEL-FIB (Keloid fibroblast, ATCC) cells differentiated into neutrophil cells by treatment of DMSO, and the inhibitory effect of ROS production of the synthetic example compounds was observed under this condition.
HL-60 cells (human leukemia cells, ATCC) was suspended in a medium comprising 1.25% DMSO (RPMI+10% FBS) and cultured under the condition of 5% CO2, 37° C. for 6 days to induce differentiation into neutrophil cells. […] Then, PMA of […] was treated in each well comprising cells and a drug to induce production of ROS, and this ROS production was measured by observing the level of luminescence of each well using 100 μM L-012.

STAM mice = test: Non-alcoholic steatohepatitis and liver fibrosis STAM mouse model; assay type: in vivo; conditions: STAM+TEL, 10 mg/kg orally once a day for 28 days
Description: In order to confirm the therapeutic effect for non-alcoholic steatohepatitis and liver fibrosis of the synthetic example compound of the present invention, non-alcoholic steatohepatitis and liver fibrosis-induced STAM mice (6-week-old, female, SMC laborlabories Inc, Japan) were used. All the mice were maintained under a standard condition. The experiment was progressed by dividing the experimental animals into a normal control group in which distilled water was orally administered (negative control), STAM group in which non-alcoholic steatohepatitis and fibrosis were induced (vehicle control), an experimental group in which telmisartane of 10 mg/kg was orally administered daily as a STAM positive control group (STAM+TEL), and an experimental group in which the synthetic example compound of 3 or 10 mg/kg was orally administered daily (STAM+Synthetic example) as 7 mice per group. The telmisartane and synthetic example compound were orally administered once a day for 28 days.
After completing the test, the animals were anesthetized and liver tissue was extracted for each individual, and blood was taken for examination. The weight of the liver tissue was measured and it was photographed. The tissue was fixed in 10% buffered neutral formalin solution. […]

LX-2 cells = test: ROS production in LX-2 cells (L-012 or DCF-DA); assay type: cell-based, human; conditions: FIG. 1
Description: as §1
(§2) NHLF (normal human lung fibroblast, Lonza), LX-2 (human hepatic stellate cells, Sigma), ARPE19 (human retinal pigment epithelial cell, ATCC), KEL-FIB (keloid fibroblast, ATCC) cells were suspended in a culture medium comprising 10% FBS and aliquoted in a 96 well plate, and then cultured under the condition of 5% CO2, 37° C. for 24 hours. The synthetic example compound was pretreated from 30 minutes to 1 hour, and then a ROS stimulus was treated to each well comprising cells and a drug. After additional culturing for 48 hours, the level of ROS production was confirmed by using L-012 or DCF-DA.

NHLF cells = test: ROS production in NHLF cells (L-012 or DCF-DA); assay type: cell-based, human; conditions: FIG. 1
Description: as §1, §2

[2] = system: bleomycin-induced pulmonary fibrosis mouse model; test: Bleomycin-induced pulmonary fibrosis mouse model; assay type: in vivo; conditions: BLM+NIN; 100 mg/kg orally once a day for 28 days; BLM group 5.4±0.5, negative control 0.4±0.55
Description: As a bleomycin-induced pulmonary fibrosis mouse model, 5-week-old, C57BL/6J male mice weighing 20 g before and after were used. The experiment was progressed by dividing the experimental animals into a control group in which distilled water was orally administered (Control), a group in which pulmonary fibrosis was caused by bleomycin (BLM), an experimental group in which bleomycin was administered and in 3 weeks, as a positive control group, nintedanib of 100 mg/kg was orally administered daily (BLM+NIN), and an experimental group in which bleomycin was administered and in 3 weeks, the synthetic example compound of the present invention of 3 mg/kg was orally administered daily (BLM+Synthetic example) as 7 mice per group.
The nintedanib and synthetic example compound was orally administered once a day for 28 days. […]
Comprehensively, based on the above histological and immunological results, by quantifying with improved Ashcroft scores (modified Ashcroft scale) widely used in the pulmonary fibrosis tissue analysis field, the severity of pulmonary fibrosis of each of the synthetic example compound administration groups (BLM+Synthetic example) compared to the negative control group (control), experimental group (BLM), positive control group was evaluated. […] For the experimental result, the mean and standard deviation were calculated using SPSS ver. […]

Row | SMILES | inhibition at 0.5 µM [1] | other results
1 | O=S(=O)(c1ccccc1)N1CCc2c(nn(-c3ccccn3)c2O)C1 [compound 26] | 50 to 70% | –
2 | CCCc1nc2c(C)cc(-c3nc4ccccc4n3C)cc2n1Cc1ccc(-c2ccccc2C(=O)O)cc1 [telmisartane] | – | liver fibrosis area (Sirius red staining) (STAM mice; STAM+vehicle 0.93±0.36, normal control 0.29±0.06): 0.44±0.15; improved NAS score (STAM mice; STAM+vehicle 4.8±0.7, normal control 0.0±0.0): 2.8±0.7
3 | Oc1c2c(nn1-c1ccc(C(F)(F)F)cn1)CCN(Cc1ccccc1)C2 [compound 39] | < 30% | –
4 | Oc1c2c(nn1-c1ccccn1)CN(Cc1ccc(F)cc1)CC2 [compound 6] | 30 to 50% | –
5 | Oc1c2c(nn1-c1ccc(C(F)(F)F)cn1)CN(Cc1ccccc1)CC2 [compound 4] | 30 to 50% | –
6 | O=C(O)c1ccc(-n2nc3c(c2O)CCN(Cc2ccccc2)C3)cc1 [compound 36] | > 70% | –
7 | N#Cc1ccc(CN2CCc3c(nn(-c4ccccn4)c3O)C2)cc1 [compound 8] | 50 to 70% | –
8 | Oc1c2c(nn1-c1ccccn1)CCN(Cc1cc3ccccc3cn1)C2 [compound 79] | 50 to 70% | –
9 | Oc1c2c(nn1-c1ccccn1)CCN(Cc1ccccc1)C2 [Synthetic example 34, 5-benzyl-2-(pyridin-2-yl)-4,5,6,7-tetrahydro-2H-pyrazolo[4,3-c]pyridin-3-ol] | – | inhibition of ROS production induced by PMA (LX-2 cells): inhibited ROS production; inhibition of ROS production induced by PMA (NHLF cells): inhibited ROS production
10 | COC(=O)c1ccc2c(c1)NC(=O)/C2=C(\Nc1ccc(N(C)C(=O)CN2CCN(C)CC2)cc1)c1ccccc1 [nintedanib] | – | improved Ashcroft score (modified Ashcroft scale) [2]: 5.0±0
11 | Oc1c2c(nn1-c1ccc(Br)cc1)CN(Cc1ccccc1)CC2 [compound 37] | > 70% | –
12 | Oc1c2c(nn1-c1ccccn1)CCN(Cc1ccccc1)C2 [compound 34] | 30 to 50% | –
13 | O=C(OCc1ccc([N+](=O)[O-])cc1)N1CCc2c(nn(-c3ccccn3)c2O)C1 [compound 32] | 30 to 50% | –
14 | Oc1c2c(nn1-c1ccccn1)CN(Cc1ccccc1)CC2 [compound 3] | 50 to 70% | –
15 | Oc1c2c(nn1-c1ccccc1Cl)CCN(Cc1ccccc1)C2 [compound 42] | < 30% | –
16 | Oc1c2c(nn1-c1ccc(Cl)cn1)CN(Cc1ccccc1)CC2 [compound 35] | 50 to 70% | –
17 | Oc1c2c(nn1-c1ccc(C(F)(F)F)cn1)CCN(Cc1cc3ccccc3cn1)C2 [compound 80] | 50 to 70% | –

Row | SMILES | inhibition at 0.5 µM [1] | other results
18 | CCN1CCc2c(nn(-c3ccccn3)c2O)C1 [compound 15] | < 30% | –
19 | O=C(NC1CCCCC1)N1CCc2c(nn(-c3ccccn3)c2O)C1 [compound 23] | < 30% | –
20 | Oc1c2c(nn1-c1ccc(Br)cc1)CCN(Cc1ccccc1)C2 [compound 41] | 50 to 70% | –
21 | Cc1ccc(CN2CCc3c(nn(-c4ccccn4)c3O)C2)cc1 [compound 7] | 30 to 50% | –
22 | Oc1c2c(nn1-c1ccccn1)CCCC2 [compound 1] | < 30% | –
23 | Oc1c2c(nn1-c1ccccn1)CN(Cc1cccc(C(F)(F)F)c1)CC2 [compound 10] | 30 to 50% | –
24 | Oc1c2c(nn1-c1ccccc1)CCN(Cc1ccccc1)C2 [compound 40] | 50 to 70% | –
25 | C#CCN1CCc2c(nn(-c3ccccn3)c2O)C1 [compound 16] | < 30% | –
26 | Oc1c2c(nn1-c1ccc(C(F)(F)F)cn1)CCN(Cc1cccc(C(F)(F)F)c1)C2 [compound 78] | – | ROS production inhibitory effect ([1]; synthetic example compounds 0.5 uM, 0.5 µM): *** (***: 50 < <70%)
27 | Oc1c2c(nn1-c1ccccn1)CCN(Cc1cccc(C(F)(F)F)c1)C2 [compound 77] | 30 to 50% | –
28 | N#Cc1ccc(CN2CCc3nn(-c4ccc(C(F)(F)F)cn4)c(O)c3C2)cc1 [compound 76] | 30 to 50% | –
29 | Oc1c2c(nn1-c1ccccc1)CN(Cc1ccccc1)CC2 [compound 38] | > 70% | –
30 | O=C(O)c1ccc(-n2nc3c(c2O)CN(Cc2ccccc2)CC3)cc1 [compound 81] | > 70% | –
31 | Oc1c2c(nn1-c1ccccn1)CN(Cc1cc(F)cc(F)c1)CC2 [compound 9] | 50 to 70% | –
32 | N#Cc1ccc(CN2CCc3nn(-c4ccccn4)c(O)c3C2)cc1 [compound 75] | 50 to 70% | –
33 | Oc1c2c(nn1-c1ccc(C(F)(F)F)cn1)CCCC2 [compound 2] | < 30% | –
34 | Oc1c2c(nn1-c1ccc(C(F)(F)F)cn1)CCN(Cc1cccc(C(F)(F)F)c1)C2 [compound 50] | 30 to 50% | –
